Laboratory results as given in US20060035901A1, “Methotrexate derivatives useful for treating cancer and arthritis” (Serenex, Inc., priority 2004, published 2006).

Target: T1, pyruvate carboxylase (PYC) (Sus scrofa, UniProt A0A8W4F6F0)
T1 construct: a porcine liver proteome was run over an ATP-Sepharose™ column; from tissue; host or cells: porcine liver
T1 sequence (A0A8W4F6F0 1-1157): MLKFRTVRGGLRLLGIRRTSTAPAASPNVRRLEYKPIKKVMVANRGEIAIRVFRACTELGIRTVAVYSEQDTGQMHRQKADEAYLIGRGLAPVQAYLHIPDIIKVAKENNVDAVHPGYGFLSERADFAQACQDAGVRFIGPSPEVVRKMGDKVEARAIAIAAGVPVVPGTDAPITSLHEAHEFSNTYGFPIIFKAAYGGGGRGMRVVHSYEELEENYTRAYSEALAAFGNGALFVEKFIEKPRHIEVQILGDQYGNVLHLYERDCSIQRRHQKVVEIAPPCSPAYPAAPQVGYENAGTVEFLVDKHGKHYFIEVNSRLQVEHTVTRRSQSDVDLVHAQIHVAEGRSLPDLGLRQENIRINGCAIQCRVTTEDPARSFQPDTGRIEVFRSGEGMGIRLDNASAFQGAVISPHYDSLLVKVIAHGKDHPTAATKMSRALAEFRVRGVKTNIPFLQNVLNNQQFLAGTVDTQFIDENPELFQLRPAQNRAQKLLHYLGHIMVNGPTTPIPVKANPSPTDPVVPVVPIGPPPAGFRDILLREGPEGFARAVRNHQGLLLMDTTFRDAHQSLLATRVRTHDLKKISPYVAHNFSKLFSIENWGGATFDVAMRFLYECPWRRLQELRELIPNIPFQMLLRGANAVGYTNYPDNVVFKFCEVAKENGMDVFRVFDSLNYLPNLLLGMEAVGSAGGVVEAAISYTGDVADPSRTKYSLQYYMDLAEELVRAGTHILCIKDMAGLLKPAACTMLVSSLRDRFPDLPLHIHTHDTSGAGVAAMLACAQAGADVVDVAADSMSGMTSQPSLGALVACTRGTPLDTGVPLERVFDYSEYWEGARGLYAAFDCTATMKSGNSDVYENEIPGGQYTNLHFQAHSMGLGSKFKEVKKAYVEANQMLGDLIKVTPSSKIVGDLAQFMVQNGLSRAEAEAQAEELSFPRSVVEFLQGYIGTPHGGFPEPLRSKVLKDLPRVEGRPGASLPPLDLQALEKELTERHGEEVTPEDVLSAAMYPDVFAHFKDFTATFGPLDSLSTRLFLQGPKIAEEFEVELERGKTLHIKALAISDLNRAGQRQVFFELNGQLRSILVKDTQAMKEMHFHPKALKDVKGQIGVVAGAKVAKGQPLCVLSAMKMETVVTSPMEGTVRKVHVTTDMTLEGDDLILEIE
Test: Elution of PYC from ATP-Sepharose column loaded with porcine liver proteome, IC50 estimate
Type: binding
Conditions: estimated from percent of protein eluted from ATP-Sepharose column, read-out: Approximate IC50 for PYC
Method: Similar experiments were carried out to compare the IC50 values for PYC, PCCA, and PCCB. In these trials, a porcine liver proteome was run over an ATP-Sepharose™ column to bind all purine-binding proteins. The ATP-Sepharose™ column was washed several times, and then eluted with the compound of Formula III at concentrations of 1 μM, 5 μM, 10 μM, 50 μM, 100 μM, and 500 μM to identify proteins that bound to this compound. (The amount of protein eluted at the higher concentration ranges plateaued, thus confirming that the entire fraction of bound protein had been eluted.) The eluted fractions were run on a 1-dimensional SDS polyacrylamide gel.
Gels were stained with a fluorescent stain such as sypro ruby (a highly sensitive fluorescent protein stain that can readily detect less than 1 fmol of total protein, i.e., less than 0.04 ng for a 40 kDa protein). The gels were imaged using a standard flat bed gel imager and the amount of protein estimated by densiometry. The percent of protein eluted from the column at each concentration was determined and IC50 values were calculated from these estimates. Where necessary, the eluted proteins were cut out of the gel, and identified using mass spectral techniques.
These steps were repeated with each of the compounds of Formulas IV-X, MTX, and the c series derivative. The values obtained were then compared to those for DHFR.

IC50 [µM] | SMILES
3.8 | C#CCN(Cc1cnc2nc(N)nc(N)c2n1)c1ccc(C(=O)NC(CCC(=O)O)C(=O)O)cc1C (stereo not shown) [Formula III, 2-{4-[(2,4-diamino-pteridin-6-ylmethyl)-prop-2-ynyl-amino]-3-methyl-benzoylamino}-pentanedioic acid]
7 | C#CCN(Cc1cnc2nc(N)nc(N)c2n1)c1ccc(C(=O)NC(CCC(=O)O)C(=O)O)cc1OC(F)(F)F (stereo not shown) [Formula IX]
3.5 | Cc1cc(C(=O)NC(CCC(=O)O)C(=O)O)ccc1N(Cc1ccoc1)Cc1cnc2nc(N)nc(N)c2n1 (stereo not shown) [Formula VII]
3.75 | C#CCN(Cc1cnc2nc(N)nc(N)c2n1)c1ccc(C(=O)NC(CCC(=O)O)C(=O)O)cc1OC (stereo not shown) [Formula VIII]
